Experimental data from US12059393B2, “Compositions for topical treatment of radiation dermatitis” (Akos Biosciences, Inc, priority 2022, dated 2024).

Test system: 3D in vitro skin model containing epidermal keratinocytes and dermal fibroblasts
Assay: LDH cytotoxicity assay in 3D in vitro skin model
Format: cell-based
Settings: positive control, no UV; defines 100% cytotoxicity
Procedure: A 3D in vitro skin model containing epidermal keratinocytes and dermal fibroblasts was used. Some tissues were irradiated with 200 mJ UVB/cm^2. Test materials were applied topically for 24 hours (after UVB exposure) and an MTT assay was used to check the viability of cells. The following treatment groups were used: • olive oil (no CBD); • CBD in olive oil in concentrations of 30, 60, 120, and 250 mg/mL; • No treatment; and • Triton-X® as positive control.
Cytotoxicity was assessed with a lactate dehydrogenase (LDH) assay using media collected from the wells of the tissues. Increased LDH activity is an indicator of damaged or dead cells.
The results are provided in the following Table A, with the untreated group defining 0% cytotoxicity and Triton-X defining 100% cytotoxicity. Lower cytotoxicity is better. * indicates p≤0.05 and ** indicates p≤0.01 statistical significance after performing unpaired t-test.

Triton-X
Cytotoxicity (%): 100%
